From patent publication US20250188123A1, “PROTEASE INHIBITORS” (Regents of the University of Minnesota, priority 2022, published 2025)

Target: T1, Human recombinant Casp1 (Homo sapiens, UniProt P29466)
T1 construct: purchased BioVision (Milpitas/CA, USA)
T1 sequence (P29466 120-404): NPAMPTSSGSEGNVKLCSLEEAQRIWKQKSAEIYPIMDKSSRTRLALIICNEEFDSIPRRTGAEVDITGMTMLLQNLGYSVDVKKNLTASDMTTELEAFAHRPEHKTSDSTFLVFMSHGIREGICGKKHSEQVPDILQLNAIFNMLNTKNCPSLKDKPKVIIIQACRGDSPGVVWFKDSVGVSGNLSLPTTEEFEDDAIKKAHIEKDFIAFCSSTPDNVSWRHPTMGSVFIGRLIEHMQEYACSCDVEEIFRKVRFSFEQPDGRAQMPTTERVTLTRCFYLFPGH
Experiment: In vitro caspase panel assay, Casp1
Assay type: biochemical
Settings: Casp2 over Casp1, caspase panel
Excerpt: Human recombinant Casp1, 6, 7, and 9 were purchased from BioVision (Milpitas/CA, USA). AFC fluorogenic substrates and control peptides (AcYVAD-CHO, AcVDVAD-CHO, AcDEVD-CHO, AcVEID-CHO, and AcLEHD-CHO) were purchased from Bachem (Torrance/CA, USA). The pET23b vector encoding human caspase-3 was a gift of Dr. Michelle Arkin at University of California, San Francisco. Expression and purification of Casp3 was guided by previously described protocols (Denault J-B, Salvesen G S., Current Protocols in Protein Science, 2002, 30(1), 21.13. 1-21.13. 15). Briefly, the plasmid was transformed into E. coli Rosetta 2 pLyss DE3 cells that were cultured at 1 L scale in shake flasks. […] The typical yield for the expression, isolation, and purification was approximately 3 mg/L. The DNA encoding human caspase-2 (hCASP2, amino acids 170-452, free of the N-terminal caspase activation and recruitment domain) open reading frame (ORF) was amplified via polymerase chain reaction (PCR) from full-length hCASP2 cDNA (Origene, Rockville, MD; Cat #SC321316) using following primers: forward, 5′-[…]-3′; reverse, 5′-[…]-3′. […] Proteins were stored in 1× phosphate-buffered saline (pH 7.4) at 10 mg/mL (concentration determined using a BCA assay (Thermo Fisher Scientific)), −80° C. until further use. […]

Cc1ccc2c(c1)CCN(C(=O)[C@@H](NC(=O)[C@H](CCCC(=O)O)NC(=O)C1Cc3ccccc3N1)C(C)C)[C@@H]2C(=O)N[C@H](C#N)CC(=O)O (stereo partly drawn) [Compound 1, (8)-6-(((S)-1-((8)-1-(((S)-2-carboxy-1-cyanoethyl)carbamoyl)-6-methyl-3,4-dihydroisoquinolin-2(1H)-yl)-3-methyl-1-oxobutan-2-yl)amino)-5-((S)-indoline-2-carboxamido)-6-oxohexanoic acid]
selective versus Casp1: > 2000 fold
